From patent US9326953B2, “Method and system for systemic delivery of growth arresting, lipid-derived bioactive compounds” (priority 2003, dated 2016) come the findings set out here.

In series [1] the test system is MDA cells. Kind of series: TUNEL staining of cleaved DNA. Type of series: cell-based, Human. On the procedure:
An investigation to determine whether C6-dependent growth inhibition correlates with enhanced apoptosis was undertaken. To confirm that C6 delivery leads to MDA cell apoptosis, TUNEL analysis (Upstate Biotechnology, Lake Placid, N.Y.) was performed, which stains cleaved DNA, a hallmark of cellular apoptosis (FIG. 7A).

The nature of series [2]: Toxicity after intravenous injection. Type of series: in vivo. To be noted: injection at 10 mg/kg.
In series [3] the test system is MDA cells. Kind of series: [3H]thymidine cell proliferation assay. Type of series: cell-based, Human. The conditions noted are these: [3H]thymidine incorporation, 10% FBS for 12 h of treatment; read-out: IC50 of C6, inhibition of MDA cell proliferation. As to the method:
To determine the utility of conventional lipid formulations for the delivery of short-chain ceramide to MDA cells, a [^3H]thymidine proliferation assay was performed. Briefly, MDA cells were seeded at 3.5×10^4 cells/well in 24-well plates and grown overnight prior to 24 h of serum starvation. At hour 12 of serum starvation, cells were treated with liposomal or nonliposomal C6 for the remainder of serum starvation. Following serum starvation, media was then supplemented with FBS (10% final concentration) for an additional 12 h, and cellular proliferation was assayed with the addition of 0.5 mCi/ml [^3H]thymidine for the final 4 h of treatment. Cells were washed once with cold PBS and then twice with 10% trichloric acetic acid for 10 min. Cells were solubilized with 0.3 N NaOH, and [^3H]thymidine incorporation into acid-insoluble DNA was assessed with a scintillation counter.

As to `CCCCCCCCCCCCC/C=C/[C@@H](O)[C@H](CO)NC(=O)CCCCC` [nonliposomal C6, D-erythro-hexanoyl-sphingosine], in the series on MDA cells [1] (20 μM, 16 h of treatment), the “DNA fragmentation (TUNEL) at 16 h” value is reported as “induced DNA fragmentation”. In the series with MDA cells [1] (cycling, serum-fed MDA cells, 8 h), the “DNA fragmentation (TUNEL) at 8 h” value is “no DNA fragmentation”. The mice killed in series [2] came to 50%. Moreover, the IC50 in the series on MDA cells [3] was determined as 15 µM.
